Test system: NK92 cells
Test: Dependence of Aleurites fordii extract-induced IFN-γ production on NF-κB/PKC signaling
Format: cell-based, human
Conditions: NK92 cells treated with inhibitor along with Aleurites fordii extract, FIG. 9

CC(=O)c1c(O)c(C)c(O)c(Cc2c(O)c3c(c(C(=O)/C=C/c4ccccc4)c2O)OC(C)(C)C=C3)c1O [rotterin]
induction of IFN-γ production by the Aleurites fordii extract: reduced

— patent publication US9375456B2, “Antiviral composition containing an Aleurites fordii or Daphne kiusiana extract or a fraction thereof as an active ingredient” (priority 2009, dated 2016)
